Results from patent US8058309B2, “Protein kinase modulators and therapeutic uses thereof” (Novotyr Therapeutics Ltd., priority 2006, dated 2011).

Experiments:
YUMAC tumors = experiment: Human melanoma YUMAC xenograft tumor growth; format: in vivo, nude mice; details: IP, 20 mg/kg, 1/day
Description: (§1) Human hormone-refractory prostate cancer PC3 cells (ATCC, 1.5×10^6 cells per mouse) were injected subcutaneously into the right leg of Nude:Hsd mice (purchased from Harlan). Ten days later, when palpable tumors had developed, mice were divided into 3 groups with similar average tumor size. […] The mice treated with compound 7 group were daily injected with compound 7 dissolved in the below described vehicle, and the vehicle-treated group (veh) was daily injected by the vehicle alone. Vehicle included 4.4% DMSO, 1.2% Ethanol and 50% PEG400 in DDW; Groups were composed of 3 mice per group. Dose administered IP was 50 mg/Kg (4 ml/Kg) once a day for one month. The length (l) and the width (w) of the tumors were measured every day and the volumes of the tumors were calculated as follows: v=1w^2/2. Graphs present average volumes of the tumors versus time in days. The procedure was followed for the other described in-vivo studies with the following modifications:
The human YUMAC metastatic melanoma cells (2×10^6 cells per mouse), provided by Dr. Ruth Halaban (Yale University), were injected subcutaneously into the right leg of male Nude:Hsd mice (purchased from Harlan). Inhibitors were injected IP daily at a dose of 20 mg/kg dissolved in 8% EtOH, 2% Tween-80, 20% PEG-400 and 20% solutol in DDW at volume of 4 ml/kg.

primary keratinocytes = experiment: In-vitro inhibition of keratinocyte growth; format: cell-based; details: growth factor enriched medium
Description: Primary keratinocytes were seeded in 96-well plates in growth factor enriched medium. After 48 hours medium was refreshed and compound 7 was added at the indicated concentrations (0 is 0.1% DMSO which was kept constant in all wells). Every 24 hours medium and compound 7 were refreshed, and 5 days following seeding cells were fixed with 0.5% gluteraldehide for 10 min, stained with Methylene-Blue. Access stain was washed away and the bound stain was extracted by 0.1N HCl. Absorbance at 620 nm wavelength was read in ELISA reader.

[1] = Body weight of treated nude mice; format: in vivo; details: IP, 1/day, 50 mg/kg, over 4 weeks
Description: as §1, with “modifications: […]” for “modifications:”

Panc1 tumors = experiment: Pancreatic cancer Panc1 xenograft tumor growth; format: in vivo, nude mice; details: intratumoral, 1/day, 125 μg/day
Description: as §1
Human pancreatic cancer Pancl cells (2×10^6 cells per mouse) were injected subcutaneously into the right leg of male Nude:Hsd mice (purchased from Harlan). Compound 7 was injected intratumorally (IT) daily at doses of 125 μg/mouse in 0.06% DMSO and 2.16% PEG400 in saline.

PC3 tumors = experiment: Hormone-refractory prostate cancer PC3 xenograft tumor growth; format: in vivo, nude mice
Description: as §1, with “modifications: […]” for “modifications:”

B16 tumors = experiment: Melanoma B16 tumor growth; format: in vivo, nude mice; details: IP, 20 mg/kg, 1/day
Description: as §1
The mouse B16 melanoma cells (1.5×10^6 cells per mouse) were injected subcutaneously into the right leg of male Nude:Hsd mice (purchased from Harlan). Inhibitors were injected IP daily at a dose of 20 mg/kg dissolved in 4.4% % DMSO, 1.2% EtOH, 33% PEG-400 in DDW at volume of 4 ml/kg.

PDGFR = PDGFR activation and signaling in fibroblasts overexpressing PDGFR; format: cell-based; details: fibroblasts over-expressing PDGFR, PDGF stimulation
Description: (§2) Tyrosine autophosphorylation of the β-subunit of IGF1R as well as downstream signaling induced by IGF1R were assayed in breast cancer MCF7 cells. Tyrosine autophosphorylation of the EGFR and the EGFR signaling was assayed in prostate cancer PC3 cells. Tyrosine autophosphorylation of the PDGFR and its signaling was assayed in fibroblasts overexpres sing PDGFR. Tyro sine autophosphorylation of the IR and its signaling was assayed in fibroblasts overexpressing IR. Cells were seeded in 6-well plates (MCF7-250,000 cells/well, PC3-150,000 cells/well, fibroblasts-140,000 cells/well) and 24 hours later medium was replaced by serum-free medium (DMEM supplemented with 100 units/ml penicillin and 100 μg/ml streptomycin). Following 20 hours of serum-starvation medium was replaced with medium containing various concentrations of the inhibitors in 0.1% DMSO for additional 4 hours. Cells were then stimulated for 5 min with 50 ng/ml IGF-1 (MCF7 cells), 20 ng/ml EGF (PC3 cells), 50 ng/ml PDGF (fibroblasts overexpressing PDGFR) or 100 nM insulin (fibroblasts overexpressing IR), washed twice with PBS and lysed by boiling sample buffer (10% glycerol, 50 mM Tris-HCl, pH 6.8, 3% SDS, and 5%, β-mercaptoethanol). Equal amounts of protein per lane were separated by 8% SDS-PAGE and transferred to a nitrocellulose membrane (Sartorius AG). […]

IR = molecular target: T1, IR (Homo sapiens, UniProt P06213); experiment: Insulin receptor activation and signaling in fibroblasts overexpressing IR; format: cell-based; details: fibroblasts over-expressing IR, insulin stimulation
T1 construct: expressed in transfected cells; host or cells: NIH3T3 fibroblasts over expressing IR
Description: as §2

MEK = MEK activity in cells (ERK phosphorylation); format: cell-based
Description: as §2

PDK = molecular target: T2, PDK (Homo sapiens, UniProt O15530); experiment: PDK activity in cells (PKB Thr308 phosphorylation); format: cell-based
T2 construct: endogenous in cells
Description: as §2

IGF1R = molecular target: T3, IGF1R (Homo sapiens, UniProt P08069); experiment: Inhibition of IGF1-induced signaling in intact MCF7 cells (western blot); format: cell-based; details: for Inhibition of IGF1R autophosphorylation and IGF1-induced signaling (IRS1 pTyr, Akt/PKB, MAPK/ERK): 4 h exposure, IGF1 stimulation
T3 construct: made in house
Description: Tyrosine autophosphorylation of the β-subunit of IGF1R as well as downstream signaling induced by IGF1R were assayed in breast cancer MCF7 cells. Tyrosine autophosphorylation of the EGFR and the EGFR signaling was assayed in prostate cancer PC3 cells. Tyrosine autophosphorylation of the PDGFR and its signaling was assayed in fibroblasts overexpres sing PDGFR. Tyro sine autophosphorylation of the IR and its signaling was assayed in fibroblasts overexpressing IR. Cells were seeded in 6-well plates (MCF7-250,000 cells/well, PC3-150,000 cells/well, fibroblasts-140,000 cells/well) and 24 hours later medium was replaced by serum-free medium (DMEM supplemented with 100 units/ml penicillin and 100 μg/ml streptomycin). Following 20 hours of serum-starvation medium was replaced with medium containing various concentrations of the inhibitors in 0.1% DMSO for additional 4 hours. Cells were then stimulated for 5 min with 50 ng/ml IGF-1 (MCF7 cells), 20 ng/ml EGF (PC3 cells), 50 ng/ml PDGF (fibroblasts overexpressing PDGFR) or 100 nM insulin (fibroblasts overexpressing IR), washed twice with PBS and lysed by boiling sample buffer (10% glycerol, 50 mM Tris-HCl, pH 6.8, 3% SDS, and 5%, β-mercaptoethanol). Equal amounts of protein per lane were separated by 8% SDS-PAGE and transferred to a nitrocellulose membrane (Sartorius AG). Phosphorylated proteins were immunoblotted with anti-phospho-IGF1R (phosphor-IGF1R), anti-phosphotyrosine-IRS1 (phospho-IRS1), anti-phospho(T308)Akt (phospho-PKB), anti-phospho-Erk (phospho-ERK), anti-phosphotyrosine 4G10&PY20 (pY-EGFR or pY-PDGFR), anti-phospho-Ser^636/639-IRS1 (pS^636/639-IRS1) and anti-phospho-STAT3 (phospho-STAT3) antibodies. Detection was performed with horseradish peroxidase-conjugated secondary antibody using the ECL system. Blots were then stripped of antibodies, blocked with TBST with 5% low fat milk and re-probed with antibodies detecting both the phosphorylated and the non-phosphorylated corresponding proteins e.g. IGF1Rβ, IRS1, PKB, ERK, IRβ, PDGFR and Stat3.

T3 sequence (P08069 31-1367, species assumed): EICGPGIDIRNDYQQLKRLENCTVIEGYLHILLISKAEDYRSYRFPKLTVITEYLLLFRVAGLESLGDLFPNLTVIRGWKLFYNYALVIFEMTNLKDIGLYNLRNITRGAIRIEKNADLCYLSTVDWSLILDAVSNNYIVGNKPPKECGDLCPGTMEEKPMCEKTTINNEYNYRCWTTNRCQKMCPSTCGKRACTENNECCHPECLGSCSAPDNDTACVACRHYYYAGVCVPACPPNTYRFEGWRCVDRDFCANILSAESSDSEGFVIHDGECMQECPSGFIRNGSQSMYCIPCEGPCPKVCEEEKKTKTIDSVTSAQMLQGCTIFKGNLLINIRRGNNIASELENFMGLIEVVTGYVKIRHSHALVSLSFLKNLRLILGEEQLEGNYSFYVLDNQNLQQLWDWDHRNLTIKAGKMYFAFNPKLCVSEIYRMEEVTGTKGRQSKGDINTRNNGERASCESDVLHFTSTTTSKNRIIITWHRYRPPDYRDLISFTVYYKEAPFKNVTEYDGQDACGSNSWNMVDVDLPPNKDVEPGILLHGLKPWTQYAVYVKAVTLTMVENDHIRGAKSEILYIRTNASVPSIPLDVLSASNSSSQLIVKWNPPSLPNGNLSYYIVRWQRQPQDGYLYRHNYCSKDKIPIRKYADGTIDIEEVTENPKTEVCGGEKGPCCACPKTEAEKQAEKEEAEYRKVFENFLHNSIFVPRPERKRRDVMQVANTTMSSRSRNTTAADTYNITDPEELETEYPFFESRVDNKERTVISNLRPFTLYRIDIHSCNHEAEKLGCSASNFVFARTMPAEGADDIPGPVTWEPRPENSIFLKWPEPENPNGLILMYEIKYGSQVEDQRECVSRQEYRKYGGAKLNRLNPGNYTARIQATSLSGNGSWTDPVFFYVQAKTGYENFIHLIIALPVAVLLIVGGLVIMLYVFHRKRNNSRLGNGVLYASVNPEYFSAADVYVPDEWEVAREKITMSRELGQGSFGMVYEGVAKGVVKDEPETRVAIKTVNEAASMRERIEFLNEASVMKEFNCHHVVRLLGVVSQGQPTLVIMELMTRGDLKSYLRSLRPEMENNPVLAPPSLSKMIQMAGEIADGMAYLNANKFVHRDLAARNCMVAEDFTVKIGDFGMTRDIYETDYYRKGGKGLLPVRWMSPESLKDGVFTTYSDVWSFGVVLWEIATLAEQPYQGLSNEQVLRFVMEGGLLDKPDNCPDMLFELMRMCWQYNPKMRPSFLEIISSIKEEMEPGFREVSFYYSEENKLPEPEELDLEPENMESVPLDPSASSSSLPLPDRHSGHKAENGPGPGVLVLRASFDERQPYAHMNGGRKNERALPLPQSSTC
T1 sequence (P06213 28-1382): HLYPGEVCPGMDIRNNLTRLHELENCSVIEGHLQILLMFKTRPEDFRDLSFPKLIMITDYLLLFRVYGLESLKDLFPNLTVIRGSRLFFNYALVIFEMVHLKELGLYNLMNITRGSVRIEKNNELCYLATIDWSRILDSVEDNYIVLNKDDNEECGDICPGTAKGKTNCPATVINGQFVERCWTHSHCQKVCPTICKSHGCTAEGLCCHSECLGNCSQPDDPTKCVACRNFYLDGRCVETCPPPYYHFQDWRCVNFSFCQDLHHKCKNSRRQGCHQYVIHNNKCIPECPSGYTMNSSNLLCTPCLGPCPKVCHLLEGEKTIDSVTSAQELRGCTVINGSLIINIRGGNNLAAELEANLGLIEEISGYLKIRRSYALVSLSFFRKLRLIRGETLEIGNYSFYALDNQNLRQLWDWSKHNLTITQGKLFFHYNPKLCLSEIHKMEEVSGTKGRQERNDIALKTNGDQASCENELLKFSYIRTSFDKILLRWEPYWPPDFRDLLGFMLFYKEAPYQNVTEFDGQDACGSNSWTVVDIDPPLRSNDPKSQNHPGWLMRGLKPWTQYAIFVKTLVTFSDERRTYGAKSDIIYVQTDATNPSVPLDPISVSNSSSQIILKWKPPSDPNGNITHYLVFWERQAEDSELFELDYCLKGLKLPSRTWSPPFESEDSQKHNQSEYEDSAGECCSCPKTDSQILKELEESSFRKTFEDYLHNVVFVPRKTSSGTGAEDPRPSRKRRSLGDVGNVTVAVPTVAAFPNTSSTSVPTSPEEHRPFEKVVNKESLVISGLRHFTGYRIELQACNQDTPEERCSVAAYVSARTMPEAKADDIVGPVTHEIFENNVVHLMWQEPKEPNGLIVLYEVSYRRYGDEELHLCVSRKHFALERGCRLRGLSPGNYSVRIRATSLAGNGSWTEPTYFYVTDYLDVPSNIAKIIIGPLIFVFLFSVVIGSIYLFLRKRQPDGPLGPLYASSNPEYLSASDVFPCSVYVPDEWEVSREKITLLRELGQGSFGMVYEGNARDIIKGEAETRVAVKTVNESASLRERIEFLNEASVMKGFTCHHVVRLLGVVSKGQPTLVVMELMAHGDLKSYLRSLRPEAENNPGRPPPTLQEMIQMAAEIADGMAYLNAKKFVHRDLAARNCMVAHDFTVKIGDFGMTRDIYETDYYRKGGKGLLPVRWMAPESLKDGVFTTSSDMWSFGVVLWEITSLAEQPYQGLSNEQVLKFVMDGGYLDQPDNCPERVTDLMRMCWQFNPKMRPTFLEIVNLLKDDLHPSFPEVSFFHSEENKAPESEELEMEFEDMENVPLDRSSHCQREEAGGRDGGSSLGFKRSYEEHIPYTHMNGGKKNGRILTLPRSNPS
T2 sequence (O15530 whole entry): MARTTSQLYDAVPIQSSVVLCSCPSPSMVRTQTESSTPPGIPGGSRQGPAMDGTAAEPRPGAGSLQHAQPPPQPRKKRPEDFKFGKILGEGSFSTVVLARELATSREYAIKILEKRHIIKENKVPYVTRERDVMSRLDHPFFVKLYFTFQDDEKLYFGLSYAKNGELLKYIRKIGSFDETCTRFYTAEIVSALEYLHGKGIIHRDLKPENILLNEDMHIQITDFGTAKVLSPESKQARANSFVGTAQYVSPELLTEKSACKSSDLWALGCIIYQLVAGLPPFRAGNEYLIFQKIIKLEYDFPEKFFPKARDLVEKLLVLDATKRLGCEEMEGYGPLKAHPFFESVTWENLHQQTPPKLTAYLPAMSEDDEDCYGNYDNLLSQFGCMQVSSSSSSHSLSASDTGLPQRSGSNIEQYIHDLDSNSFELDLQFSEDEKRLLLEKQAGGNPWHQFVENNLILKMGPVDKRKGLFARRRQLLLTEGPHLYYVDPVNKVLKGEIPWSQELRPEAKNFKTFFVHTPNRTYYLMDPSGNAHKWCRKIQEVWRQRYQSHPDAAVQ

| Inhibition of IR in intact cells (IR) | Inhibition of PDK (phosphorylation of PKB Thr308) (PDK) | IC50 (IGF1R; read-out: IC50 in inhibition of the Akt/PKB pathway downstream IGF1R) [µM] | SMILES | Growth inhibition of human melanoma YUMAC tumors (YUMAC tumors) | IC50 (primary keratinocytes) [µM] | Effect on body weight of the mice [1] | Growth inhibition of pancreatic cancer Panc1 tumors (Panc1 tumors) [%] | Growth inhibition of HRPC PC3 tumors (PC3 tumors; IP, 1/day, 50 mg/kg, one month, vs vehicle treated and untreated) [%] | Efficacy on HRPC model by intratumoral administration (PC3 tumors; intratumoral administration) | Growth inhibition of melanoma B16 tumors (B16 tumors) | Inhibition of PDGFR in intact cells (PDGFR) | Inhibition of MEK (phosphorylation of ERK) (MEK) | Inhibition of IGF1R autophosphorylation and IGF1-induced signaling (IRS1 pTyr, Akt/PKB, MAPK/ERK) (IGF1R) |
| --- | --- | --- | --- | --- | --- | --- | --- | --- | --- | --- | --- | --- | --- |
| – | – | – | N#C/C(=C\c1cc(O)c(O)c(I)c1)C(=S)NCc1cc(O)c(O)c(O)c1 [Compound 8] | inhibition | – | – | – | – | – | – | – | – | – |
| inhibits | not inhibited | 1 to 2 | N#C/C(=C\c1cc(O)c(O)c(Br)c1)C(=S)NCc1cc(O)c(O)c(O)c1 [Compound 7] | – | 2.3 | no significant effect | 50 | 82 | efficient | significant inhibitory effect | inhibits | not inhibited | dramatically inhibited |
| – | – | – | N#C/C(=C\c1cc(O)c(O)c(Br)c1)C(=S)NCc1cc(O)c(O)c(Br)c1 [Compound 6] | – | – | – | – | – | – | significant inhibitory effect | – | – | inhibited the autophosphorylation of IGF1R |
